From patent publication US20130123481A1, “MODIFIED NUCLEOSIDES, NUCLEOTIDES, AND NUCLEIC ACIDS, AND USES THEREOF” (MODERNA THERAPEUTICS, priority 2011, published 2013)
Like-named read-outs stand apart in the source and are kept apart here.

B1: Modified G-CSF mRNA: G-CSF mRNA fully modified with 5-methylcytosine and pseudouridine, with or without lipoplex (0.75% RNAIMAX) (nucleic acid, listed as Homo Sapiens)
chain: GGGAAAUAAGAGAGAAAAGAAGAGUAAGAAGAAAUAUAAGAGCCACCAUGGCCGGUCCCGCGACCCAAAGCCCCAUGAAACUUAUGGCCCUGCAGUUGCUGCUUUGGCACUCGGCCCUCUGGACAGUCCAAGAAGCGACUCCUCUCGGACCUGCCUCAUCGUUGCCGCAGUCAUUCCUUUUGAAGUGUCUGGAGCAGGUGCGAAAGAUUCAGGGCGAUGGAGCCGCACUCCAAGAGAAGCUCUGCGCGACAUACAAACUUUGCCAUCCCGAGGAGCUCGUACUGCUCGGGCACAGCUUGGGGAUUCCCUGGGCUCCUCUCUCGUCCUGUCCGUCGCAGGCUUUGCAGUUGGCAGGGUGCCUUUCCCAGCUCCACUCCGGUUUGUUCUUGUAUCAGGGACUGCUGCAAGCCCUUGAGGGAAUCUCGCCAGAAUUGGGCCCGACGCUGGACACGUUGCAGCUCGACGUGGCGGAUUUCGCAACAACCAUCUGGCAGCAGAUGGAGGAACUGGGGAUGGCACCCGCGCUGCAGCCCACGCAGGGGGCAAUGCCGGCCUUUGCGUCCGCGUUUCAGCGCAGGGCGGGUGGAGUCCUCGUAGCGAGCCACCUUCAAUCAUUUUUGGAAGUCUCGUACCGGGUGCUGAGACAUCUUGCGCAGCCGUGAAGCGCUGCCUUCUGCGGGGCUUGCCUUCUGGCCAUGCCCUUCUUCUCUCCCUUGCACCUGUACCUCUUGGUCUUUGAAUAAAGCCUGAGUAGGAAG
modifications: 5mC/pseudoU; Cap1; polyA tail

Key:
HeLa cells [1] = assay: In vitro Screening in HeLa Cells - luciferase (RLU); assay type: cell-based, human; parameters: key to Protein (Luc; HeLa): the protein production of HeLa is judged by “+,” “+/−” and “−”; the protein production of HeLa is judged by “+,” “+/−” and “−”; the protein production of HeLa is judged by “+,” “+/−” and “−”
Experimental: The 2′Fluoro-modified mRNA were then transfected into HeLa cells to assess protein production in a cell context and the same mRNA were also assessed in a cell-free rabbit reticulocyte system. A control of unmodified luciferase (natural luciferase) was used for both transcription experiments, a control of untreated and mock transfected (Lipofectamine 2000 alone) were also analyzed for the HeLa transfection and a control of no RNA was analyzed for the rabbit reticulysates.
For the HeLa transfection experiments, the day before transfection, 20,000 HeLa cells (ATCC no. CCL-2; Manassas, Va.) were harvested by treatment with Trypsin-EDTA solution (LifeTechnologies, Grand Island, N.Y.) and seeded in a total volume of 100 ul EMEM medium (supplemented with 10% FCS and 1× Glutamax) per well in a 96-well cell culture plate (Corning, Manassas, Va.). The cells were grown at […] in 5% CO2 atmosphere overnight. […] Lipofectamine 2000 (LifeTechnologies, Grand Island, N.Y.) was used as transfection reagent and 0.2 ul were diluted in 10 ul final volume of OPTI-MEM. After […] of incubation at room temperature, both solutions were combined and incubated an additional 15 minute at room temperature. Then the 20 ul combined solution was added to the 100 ul cell culture medium containing the HeLa cells and incubated at room temperature. After 18 to 22 hours of incubation cells expressing luciferase were lysed with 100 ul of Passive Lysis Buffer (Promega, Madison, Wis.) according to manufacturer instructions. Aliquots of the lysates were transferred to white opaque polystyrene 96-well plates (Corning, Manassas, Va.) and combined with 100 ul complete luciferase assay solution (Promega, Madison, Wis.). The lysate volumes were adjusted or diluted until no more than 2 mio relative light units (RLU) per well were detected for the strongest signal producing samples and the RLUs for each chemistry tested are shown in Table 42. The plate reader was a BioTek Synergy H1 (BioTek, Winooski, Vt.). The background signal of the plates without reagent was about 200 relative light units per well.
To evaluate using of 2′fluoro-modified mRNA in combination with other modification a series of mRNA were transcribed using either wild-type T7 polymerase (non-fluoro-containing compounds) or using mutant T7 polymerases (fluyoro-containing compounds) as described in Example 86. All modified mRNA were tested by in vitro transfection in HeLa cells.
After 18 to 22 hours of incubation cells expressing luciferase were lysed with 100 ul of Passive Lysis Buffer (Promega, Madison, Wis.) according to manufacturer instructions. Aliquots of the lysates were transferred to white opaque polystyrene 96-well plates (Corning, Manassas, Va.) and combined with 100 ul complete luciferase assay solution (Promega, Madison, Wis.). The lysate volumes were adjusted or diluted until no more than 2 mio relative light units (RLU) per well were detected for the strongest signal producing samples and the RLUs for each chemistry tested are shown in Table 44. The plate reader was a BioTek Synergy H1 (BioTek, Winooski, Vt.). The background signal of the plates without reagent was about 200 relative light units per well.

HeLa cells [2] = assay: G-CSF expression in HeLa cells (ELISA); assay type: cell-based, human; parameters: key to Protein (G-CSF; HeLa): the protein production of HeLa is judged by “+,” “+/−” and “−”; the protein production of HeLa is judged by “+,” “+/−” and “−”; the protein production of HeLa is judged by “+,” “+/−” and “−”
Experimental: To assess the activity of all our different chemical modifications in the context of a second open reading frame, we replicated experiments previously conducted using luciferase mRNA, with human G-CSF mRNA. […] The mutant T7 polymerase was obtained commercially (Durascribe® T7 Transcription kit (Cat. No. DS010925) (Epicentre®, Madison, Wis.).
The modified RNA in Tables 45 and 46 were transfected in vitro in HeLa cells or added to rabbit reticulysates (250 ng of modified mRNA) as indicated. […] In Table 45, “NT” means not tested.

[3] = system: peripheral blood mononuclear cells (PBMC); assay: In Vitro Screening in PBMC - G-CSF protein expression; assay type: cell-based, human; conditions: background about 110 pg/ml
From the text: (§1) The supernatant was harvested and stored frozen until analyzed by ELISA to determine the G-CSF protein expression, and the induction of the cytokines interferon-alpha (IFN-α) and tumor necrosis factor alpha (TNF-α).

wild-type T7 polymerase = wild-type T7 polymerase (Escherichia phage T7, UniProt P00573); assay: In Vitro Transcription with Wild-Type T7 Polymerase (transcription and capping yield); conditions: Pass/Fail; for IVT (G-CSF), first result / IVT (Luc), first result: Table 48 non-naturally occurring; for IVT (G-CSF), first result / IVT (G-CSF): G-CSF mRNA in vitro transcription; for IVT (Luc), first result / IVT (Luc): luciferase mRNA in vitro transcription; for IVT (G-CSF) / IVT (Luc): Table 47 naturally occurring
Experimental: The luciferase and G-CSF modified mRNA were also subjected to an enzymatic capping reaction and each modified mRNA capping reaction was evaluated for yield by spectrophometic measurement (OD260) and correct size assessed using bioanalyzer.

[4] = system: peripheral blood mononuclear cells (PBMC), interferon-alpha (IFN-α); assay type: cell-based, human; conditions: IFN-alpha, background about 70 pg/ml
From the text: as §1

[5] = Stability of Modified RNA - storage, gel electrophoresis; assay type: physicochemical
Experimental: Stability experiments were conducted to obtain a better understanding of storage conditions to retain the integrity of modified RNA. […] After the mRNA had been stored for 0 hours, 2 hours, 6 hours, 24 hours, 48 hours, 5 days and 14 days, the mRNA was analyzed by gel electrophoresis using a Bio-Rad EXPERION™ system. The modified, unmodified and lipoplexed G-CSF mRNA was also stored in RNASTABLE® (Biomatrica, Inc. San Diego, Calif.) at 40° C. or water at −80° C. or 40° C. for 35 days before being analyzed by gel electrophoresis.

[6] = Table 48 non-naturally occurring, ** mutant T7 polymerase
[7] = Table 48 non-naturally occurring
[8] = Table 47 naturally occurring, *** = production seen in cell free translations

wild-type T7 polymerase, sequence (P00573 whole entry): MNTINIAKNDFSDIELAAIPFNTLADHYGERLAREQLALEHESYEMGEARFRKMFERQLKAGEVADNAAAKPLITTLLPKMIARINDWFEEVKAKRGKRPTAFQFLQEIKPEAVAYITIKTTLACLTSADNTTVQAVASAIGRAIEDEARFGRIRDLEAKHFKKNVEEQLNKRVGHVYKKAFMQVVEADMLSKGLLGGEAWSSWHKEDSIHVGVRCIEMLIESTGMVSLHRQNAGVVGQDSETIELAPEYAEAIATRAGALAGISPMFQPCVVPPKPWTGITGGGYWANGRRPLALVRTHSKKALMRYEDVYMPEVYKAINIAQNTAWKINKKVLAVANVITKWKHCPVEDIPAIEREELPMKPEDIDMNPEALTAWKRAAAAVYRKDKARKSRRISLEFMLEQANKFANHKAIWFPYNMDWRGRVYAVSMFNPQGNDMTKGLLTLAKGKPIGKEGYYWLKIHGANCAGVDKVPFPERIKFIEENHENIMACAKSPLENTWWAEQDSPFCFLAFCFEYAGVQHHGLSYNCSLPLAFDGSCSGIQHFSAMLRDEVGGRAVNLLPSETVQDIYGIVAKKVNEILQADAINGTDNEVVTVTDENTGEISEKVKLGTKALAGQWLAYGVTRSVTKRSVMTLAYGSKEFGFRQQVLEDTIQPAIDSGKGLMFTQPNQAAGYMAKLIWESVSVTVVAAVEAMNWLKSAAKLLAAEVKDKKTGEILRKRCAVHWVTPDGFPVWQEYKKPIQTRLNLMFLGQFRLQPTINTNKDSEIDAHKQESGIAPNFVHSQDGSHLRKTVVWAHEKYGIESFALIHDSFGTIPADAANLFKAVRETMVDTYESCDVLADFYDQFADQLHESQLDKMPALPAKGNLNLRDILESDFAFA

Molecule | Protein (Luc; HeLa) (HeLa cells [1]; [8]) | Protein (G-CSF; PBMC) ([3]; Table 47 naturally occurring) | IVT (G-CSF) (wild-type T7 polymerase) | IVT (Luc) (wild-type T7 polymerase) | Cytokines (G-CSF; PBMC) ([4]; Table 47 naturally occurring) | Protein (G-CSF; HeLa) (HeLa cells [2]; [8]) | other results
5-Br-Uridine [Compound 5-Br-Uridine] |  |  |  |  |  |  | Protein (Luc; HeLa) (HeLa cells [1]; [6]): +; Protein (G-CSF; HeLa) (HeLa cells [2]; [7]): +; Protein (G-CSF; PBMC) [3, 7]: + (“+” means greater than 300 pg/ml G-CSF); IVT (G-CSF), first result (wild-type T7 polymerase): Pass; IVT (Luc), first result (wild-type T7 polymerase): Pass; Cytokines (G-CSF; PBMC) [4, 7]: + (“+” means greater than 100 pg/ml IFN-alpha)
Cn1cc([C@@H]2O[C@H](CO)[C@@H](O)[C@H]2O)c(=O)[nH]c1=O [1-methylpseudouridine (m^1Y)] | + | ++++ (“++++” means greater than 6,000 pg/ml G-CSF) | Pass | Pass | − (“−” means less than 100 pg/ml) |  | 
O=c1ccn([C@@H]2O[C@H](CO)[C@@H](O)[C@H]2O)c(=S)[nH]1 [2-thiouridine (s^2U)] | − | + (“+” means greater than 300 pg/ml G-CSF) | Pass | Pass | + (“+” means greater than 100 pg/ml IFN-alpha) | + | 
COC(=O)C=Cc1cn([C@@H]2O[C@H](CO)[C@@H](O)[C@H]2O)c(=O)[nH]c1=O [5-(2-carbomethoxyvinyl) Uridine] |  |  |  |  |  |  | Protein (Luc; HeLa) (HeLa cells [1]; [6]): −; Protein (G-CSF; HeLa) (HeLa cells [2]; [7]): −; Protein (G-CSF; PBMC) [3, 7]: +/− (“+/−” means 150-300 pg/ml G-CSF); IVT (G-CSF), first result (wild-type T7 polymerase): Pass; IVT (Luc), first result (wild-type T7 polymerase): Pass; Cytokines (G-CSF; PBMC) [4, 7]: − (“−” means less than 100 pg/ml)
Nc1nc(=O)n([C@@H]2O[C@H](CO)[C@@H](O)[C@H]2O)cc1C=O [5-formylcytidine (f^5C)] | −*** |  | Pass | Pass | + (“+” means greater than 100 pg/ml IFN-alpha) | −*** | 
O=c1[nH]cc([C@@H]2O[C@H](CO)[C@@H](O)[C@H]2O)c(=O)[nH]1 [pseudouridine (Y)] | + | ++ (“++” means greater than 1,500 pg/ml G-CSF) | Pass | Pass | + (“+” means greater than 100 pg/ml IFN-alpha) | + | 
N^6-methyladenosine (m^6A) | − | +/− (“+/−” means 150-300 pg/ml G-CSF) | Pass | Pass | ++++ (“++++” means greater than 1,000 pg/ml interferon-alpha (IFN-alpha)) | − | 
B1 |  |  |  |  |  |  | freeze/thaw cycles tolerated [5]: 12 freeze/thaw cycles; stable out to ([5]; stored at 25° C.): 120 h; stable out to ([5]; stored at 37° C.): 24 h; stable out to ([5]; stored at 50° C.): 6 h
